≈ marks a conversion by molar mass, not a printed value. Where two headings read alike, the source gives them in different places.
Tests used:
Type in all cases: cell-based
[1] = tested on: Escherichia coli ATCC 25922; assay: MIC, broth microdilution, E. coli ATCC 25922; conditions: ATCC25922, Table 1, wild type strain
[2] = tested on: Staphylococcus aureus ATCC 29213; assay: MIC, broth microdilution, S. aureus ATCC 29213
[3] = tested on: S. aureus NRS127 MRSA LZD resistant; assay: MIC, S. aureus NRS127; conditions: Staphylococcus aureus; Table 2
[4] = tested on: Haemophilus influenzae ATCC 49247; assay: MIC, H. influenzae ATCC 49247; conditions: ATCC49247, Table 4
[5] = tested on: S. aureus NRS482 MRSA FQ resistant; assay: MIC, S. aureus NRS482; conditions: Staphylococcus aureus; Table 2
[6] = tested on: human hepatic cell line (HepG2 ATCC HB-8065); assay: Human cell viability assay (CellTiter-Glo), HepG2; conditions: HepG2, 24 h incubation, tested over 1-128 μg/mL, read-out: IC50 values against HepG2
Protocol: Compounds are assessed for potential non-specific cytotoxic effects against a human hepatic cell line (HepG2 ATCC HB-8065). HepG2 cells are seeded at 20,000 cells/well in 96-well microtitre plates in minimal essential medium (MEM) supplemented with a final concentration of 10% FBS and 1 mM sodium pyruvate. After 24 h compound dilutions are prepared in Dulbecco's minimum essential media (DMEM) supplemented with final concentrations of 0.001% FBS, 0.3% bovine albumin and 0.02% HEPES and added to cells. Compounds are tested in two-fold serial dilutions over a final concentration range of 1-128 μg/mL in a final DMSO concentration of 1% vol/vol. Chlorpromazine is used as a positive control. Cells are incubated with compound at 37° C. and 5% CO2 for a further 24 h, after which time the CellTiter-Glo reagent (Promega) is added. Luminescence is measured on a BMG Omega plate reader. Data are analysed using GraphPad Prism software to determine the concentration of compound that inhibits cell viability by fifty percent (IC50).

[7] = tested on: Enterococcus faecium ATCC 19434; assay: MIC, E. faecium ATCC 19434; conditions: ATCC19434, Table 2
S. aureus NRS1 MRSA = assay: MIC, S. aureus NRS1; conditions: Staphylococcus aureus; Table 2; read-out: MIC S. aureus NRS1 MRSA AMG & TET resistant
[8] = tested on: S. aureus VRS1 MRSA VAN resistant; assay: MIC, S. aureus VRS1; conditions: Staphylococcus aureus, Table 2
[9] = tested on: S. aureus (MRSA) ATCC 43300; assay: MIC, S. aureus ATCC 43300; conditions: Staphylococcus aureus; Table 2; read-out: MIC S. aureus (MRSA) ATCC 43300 Heterogeneous MRSA strain
[10] = ATCC29213, Table 1, wild type strain, read-out: MIC S. aureus ATCC 29213
[11] = ATCC 29213 / MSSA, Table 2, read-out: MIC S. aureus (MSSA) ATCC 29213 CLSI control strain

| SMILES | MIC [1] | MIC [2, 10] | MIC [2, 11] | MIC [3] | MIC [4] | MIC [5] | IC50 [6] | MIC [7] | MIC (S. aureus NRS1 MRSA) | MIC [8] | MIC [9] |
| --- | --- | --- | --- | --- | --- | --- | --- | --- | --- | --- | --- |
| Cc1c(-c2ccc3[nH]cnc3c2)ccc2c3ocnc3c(=O)n(C3CC3)c12 [Compound 15, 7-(1H-benzimidazol-5-yl)-5-cyclopropyl-6-methyl-oxazolo[4,5-c]quinolin-4-one] | 10 to 100 µg/mL (≈ 28.1 to 281 µM) | < 1 µg/mL | < 1 µg/mL | < 1 µg/mL | 1 to 10 µg/mL (≈ 2.81 to 28.1 µM) | < 1 µg/mL | – | – | – | – | – |
| CCOC(=O)CNC(=O)c1ccc(-c2ccc3c4ocnc4c(=O)n(C4CC4)c3c2C)cc1 [Compound 30, ethyl-2-[{4-(5-cyclopropyl-6-methyl-4-oxo-oxazolo[4,5-c]quinolin-7-yl)benzoyl}amino]acetate] | > 100 µg/mL | 1 to 10 µg/mL (≈ 2.24 to 22.4 µM) | 1 to 10 µg/mL (≈ 2.24 to 22.4 µM) | 1 to 10 µg/mL (≈ 2.24 to 22.4 µM) | 1 to 10 µg/mL (≈ 2.24 to 22.4 µM) | 1 to 10 µg/mL (≈ 2.24 to 22.4 µM) | 10 to 100 µg/mL (≈ 22.4 to 224 µM) | > 100 µg/mL | 1 to 10 µg/mL (≈ 2.24 to 22.4 µM) | 1 to 10 µg/mL (≈ 2.24 to 22.4 µM) | 1 to 10 µg/mL (≈ 2.24 to 22.4 µM) |
| Cc1nc2c(=O)n(C3CC3)c3c(C)c(-c4cc(F)c(C(N)=O)cc4F)ccc3c2o1 [Compound 35, 4-(5-cyclopropyl-2,6-dimethyl-4-oxo-oxazolo[4,5-c]quinolin-7-yl)-2,5-difluoro-benzamide] | 1 to 10 µg/mL (≈ 2.44 to 24.4 µM) | < 1 µg/mL | < 1 µg/mL | – | 1 to 10 µg/mL (≈ 2.44 to 24.4 µM) | 1 to 10 µg/mL (≈ 2.44 to 24.4 µM) | 10 to 100 µg/mL (≈ 24.4 to 244 µM) | 10 to 100 µg/mL (≈ 24.4 to 244 µM) | 1 to 10 µg/mL (≈ 2.44 to 24.4 µM) | – | < 1 µg/mL |
| Nc1ccc(-c2cc3c(cc2F)c2ocnc2c(=O)n3C2CC2)cc1F [Compound 71, 7-(4-amino-3-fluoro-phenyl)-5-cyclopropyl-8-fluoro-oxazolo[4,5-c]quinolin-4-one] | 1 to 10 µg/mL (≈ 2.83 to 28.3 µM) | 1 to 10 µg/mL (≈ 2.83 to 28.3 µM) | 1 to 10 µg/mL (≈ 2.83 to 28.3 µM) | – | < 1 µg/mL | – | > 100 µg/mL | 10 to 100 µg/mL (≈ 28.3 to 283 µM) | – | – | – |
| Cc1nc2c(=O)n(C3CC3)c3cc(-c4ccc(CN)c(F)c4)c(F)cc3c2o1 [Compound 76, 7-[4-(aminomethyl)-3-fluoro-phenyl]-5-cyclopropyl-8-fluoro-2-methyl-oxazolo[4,5-c]quinolin-4-one] | 1 to 10 µg/mL (≈ 2.62 to 26.2 µM) | < 1 µg/mL | < 1 µg/mL | 1 to 10 µg/mL (≈ 2.62 to 26.2 µM) | 1 to 10 µg/mL (≈ 2.62 to 26.2 µM) | 1 to 10 µg/mL (≈ 2.62 to 26.2 µM) | – | 10 to 100 µg/mL (≈ 26.2 to 262 µM) | 1 to 10 µg/mL (≈ 2.62 to 26.2 µM) | 10 to 100 µg/mL (≈ 26.2 to 262 µM) | < 1 µg/mL |
| Cc1c(-c2cc(F)c(N)cc2F)ccc2c3oc(CN(C)C)nc3c(=O)n(C3CC3)c12 [Compound 101, 7-(4-amino-2,5-difluoro-phenyl)-5-cyclopropyl-2-[(dimethylamino)methyl]-6-methyl-oxazolo[4,5-c]quinolin-4-one] | 10 to 100 µg/mL (≈ 23.6 to 236 µM) | < 1 µg/mL | < 1 µg/mL | – | 1 to 10 µg/mL (≈ 2.36 to 23.6 µM) | 1 to 10 µg/mL (≈ 2.36 to 23.6 µM) | 10 to 100 µg/mL (≈ 23.6 to 236 µM) | – | – | – | – |
| Cc1c(-c2cc(F)c(C(C)O)cc2F)ccc2c3ocnc3c(=O)n(C3CC3)c12 (centres unmarked) [Compound 22, 5-cyclopropyl-7-[2,5-difluoro-4-(1-hydroxyethyl)phenyl]-6-methyl-oxazolo[4,5-c]quinolin-4-one] | 1 to 10 µg/mL (≈ 2.52 to 25.2 µM) | < 1 µg/mL | < 1 µg/mL | – | 1 to 10 µg/mL (≈ 2.52 to 25.2 µM) | – | 10 to 100 µg/mL (≈ 25.2 to 252 µM) | 10 to 100 µg/mL (≈ 25.2 to 252 µM) | – | – | – |
| Cc1c(-c2cc(F)c(N)cc2F)ccc2c3oc(CO)nc3c(=O)n(C3CC3)c12 [Compound 99, 7-(4-amino-2,5-difluorophenyl)-5-cyclopropyl-2-(hydroxymethyl)-6-methyloxazolo[4,5-c]quinolin-4-one] | 1 to 10 µg/mL (≈ 2.52 to 25.2 µM) | < 1 µg/mL | < 1 µg/mL | 1 to 10 µg/mL (≈ 2.52 to 25.2 µM) | < 1 µg/mL | < 1 µg/mL | – | – | 1 to 10 µg/mL (≈ 2.52 to 25.2 µM) | 1 to 10 µg/mL (≈ 2.52 to 25.2 µM) | < 1 µg/mL |
| Cc1nc2c(=O)n(C3CC3)c3cc(N4CCC(N)C4)c(F)cc3c2o1 (centres unmarked) [Compound 56, 7-(3-aminopyrrolidin-1-yl)-5-cyclopropyl-8-fluoro-2-methyl-oxazolo[4,5-c]quinolin-4-one] | 1 to 10 µg/mL (≈ 2.92 to 29.2 µM) | 1 to 10 µg/mL (≈ 2.92 to 29.2 µM) | 1 to 10 µg/mL (≈ 2.92 to 29.2 µM) | – | 1 to 10 µg/mL (≈ 2.92 to 29.2 µM) | – | 10 to 100 µg/mL (≈ 29.2 to 292 µM) | 10 to 100 µg/mL (≈ 29.2 to 292 µM) | – | – | – |
| O=c1c2ncoc2c2cc(F)c(-c3ccc(O)cc3)cc2n1C1CC1 [Compound 64, 5-cyclopropyl-8-fluoro-7-(4-hydroxyphenyl)oxazolo[4,5-c]quinolin-4-one] | 10 to 100 µg/mL (≈ 29.7 to 297 µM) | < 1 µg/mL | < 1 µg/mL | – | < 1 µg/mL | – | 10 to 100 µg/mL (≈ 29.7 to 297 µM) | > 100 µg/mL | – | – | – |
| Cc1c(-c2ccc(C(=O)NCC(=O)O)cc2)ccc2c3ocnc3c(=O)n(C3CC3)c12 [Compound 31, 2-[{4-(5-cyclopropyl-6-methyl-4-oxo-oxazolo[4,5-c]quinolin-7-yl)benzoyl}amino]acetic acid] | > 100 µg/mL | > 100 µg/mL | > 100 µg/mL | – | > 100 µg/mL | > 100 µg/mL | – | – | – | – | – |
| Cc1nc2c(=O)n(C3CC3)c3c(C)c(-c4ccc(CN)cc4)ccc3c2o1 [Compound 9, 7-[4-{aminomethyl)phenyl]-5-cyclopropyl-2,6-dimethyl-oxazolo[4,5-c]quinolin-4-one] | 1 to 10 µg/mL (≈ 2.78 to 27.8 µM) | < 1 µg/mL | < 1 µg/mL | – | 1 to 10 µg/mL (≈ 2.78 to 27.8 µM) | – | 10 to 100 µg/mL (≈ 27.8 to 278 µM) | > 100 µg/mL | – | – | – |
| CC(=O)OCc1nc2c(=O)n(C3CC3)c3c(C)c(-c4cc(F)c(N)cc4F)ccc3c2o1 [Compound 98, [7-(4-amino-2,5-difluorophenyl)-5-cyclopropyl-6-methyl-4-oxo-4H,5H-[1,3]oxazolo[4,5-c]quinolin-2-yl]methyl acetate] | 1 to 10 µg/mL | < 1 µg/mL | < 1 µg/mL | – | 1 to 10 µg/mL | < 1 µg/mL | > 100 µg/mL | – | – | – | – |
| Cc1nc2c(=O)n(C3CC3)c3c(C)c(-c4ccc(C(=O)O)cc4)ccc3c2o1 [Compound 8, 4-(5-cyclopropyl-2,6-dimethyl-4-oxo-oxazolo[4,5-c]quinolin-7-yl)benzoic acid] | > 100 µg/mL | 10 to 100 µg/mL (≈ 26.7 to 267 µM) | > 100 µg/mL | – | 1 to 10 µg/mL (≈ 2.67 to 26.7 µM) | – | > 100 µg/mL | > 100 µg/mL | – | – | – |
| Cc1c(-c2cc(F)c(N)c(F)c2)ccc2c3ocnc3c(=O)n(C3CC3)c12 [Compound 19] | > 100 µg/mL | < 1 µg/mL | < 1 µg/mL | – | 1 to 10 µg/mL (≈ 2.72 to 27.2 µM) | – | 10 to 100 µg/mL (≈ 27.2 to 272 µM) | > 100 µg/mL | – | – | – |
| Cc1nc2c(=O)n(C3CC3)c3cc(N4CC[C@@H](C(C)(C)N)C4)c(F)cc3c2o1 [Compound 50, 7-[(3R)-3-(2-aminopropan-2-yl)pyrrolidin-1-yl]-5-cyclopropyl-8-fluoro-2-methyl-oxazolo[4,5-c]quinolin-4-one] | 1 to 10 µg/mL (≈ 2.6 to 26 µM) | 1 to 10 µg/mL (≈ 2.6 to 26 µM) | 1 to 10 µg/mL (≈ 2.6 to 26 µM) | – | 10 to 100 µg/mL (≈ 26 to 260 µM) | – | 10 to 100 µg/mL (≈ 26 to 260 µM) | > 100 µg/mL | – | – | – |
| Cc1nc2c(=O)n(C3CC3)c3c(C)c(-c4cn[nH]c4)ccc3c2o1 [Compound 29, 5-cyclopropyl-2,6-dimethyl-7-(1H-pyrazol-4-yl)oxazolo[4,5-c]quinolin-4-one] | 10 to 100 µg/mL (≈ 31.2 to 312 µM) | 1 to 10 µg/mL (≈ 3.12 to 31.2 µM) | 1 to 10 µg/mL (≈ 3.12 to 31.2 µM) | – | 1 to 10 µg/mL (≈ 3.12 to 31.2 µM) | – | > 100 µg/mL | > 100 µg/mL | – | – | – |

Reference: US10385065B2, “Antibacterial compounds” (priority 2014, dated 2019)
